Reference: US10150776B2, “Harringtonines salts in the crystalline state and their use for the purification of the corresponding drug substance” (priority 2013, dated 2018)

Tested on: cancer
Assay: not given
Set-up: key: cytotoxic: CYTOTOXICITY is toxicity to tumor cells in culture; anticancer: ANTINEOPLASTIC or ANTICANCER iare the reserved terms for reportied clinical trials data
Conditions: in cancer area; terms defined in table footnote; cited from earlier work

Row | Compound | Activity
1 | COC(=O)C[C@](O)(CCCC(C)(C)O)C(=O)O[C@@H]1C(OC)=C[C@]23CCCN2CCc2cc4c(cc2[C@H]13)OCO4 [Homoharringtonine base, homoharringtonine] | anticancer
2 | COC(=O)C[C@](O)(CCC(C)(C)O)C(=O)O[C@@H]1C(OC)=C[C@]23CCCN2CCc2cc4c(cc2[C@H]13)OCO4 [Example 5a, harringtonine] | anticancer
3 | COC(=O)C[C@](O)(CCC(C)C)C(=O)O[C@@H]1C(OC)=C[C@]23CCCN2CCc2cc4c(cc2[C@H]13)OCO4 [Example 5d, deoxyharringtonine] | anticancer
4 | neoharringtonine [Example 5g] | cytotoxic
5 | COC(=O)CC(O)(CC(C)(C)O)C(=O)OC1C(OC)=CC23CCCN2CCc2cc4c(cc2C13)OCO4 (stereo not drawn) [Example 5c, norharringtonine] | none
6 | COC(=O)[C@@H](O)[C@](O)(CCC(C)C)C(=O)O[C@@H]1C(OC)=C[C@]23CCCN2CCc2cc4c(cc2[C@H]13)OCO4 [Example 5f, isoharringtonine] | none
7 | COC(=O)CC(O)(CCCCC(C)(C)O)C(=O)OC1C(OC)=CC23CCCN2CCc2cc4c(cc2C13)OCO4 (stereo not drawn) [Example 5e, bishomoharringtonine] | none

Tested on: not listed separately
Assay: Solubility determination in water, semi-quantitative
Format: physicochemical
Conditions: 25° C., semi-quantitative, read-out: Solubility in water (threshold)
Method: Solubility in water at 25° C. was measured semi-quantitatively at a threshold of 5 g per 100 mL. All the homoharringtonine salts described in the below examples, unless otherwise stated, are soluble at this threshold. Homoharringtonine base itself is soluble at a threshold lower than 0.1 g per mL

Row | solubility [mg/mL] | Compound
8 | < 100 | COC(=O)C[C@](O)(CCCC(C)(C)O)C(=O)O[C@@H]1C(OC)=C[C@]23CCCN2CCc2cc4c(cc2[C@H]13)OCO4 [Homoharringtonine base, homoharringtonine]

Same assay, conditions: 25 °C

Row | solubility [mg/mL] | Compound
9 | > 60 | COC(=O)C[C@@](O)(CCCC(C)(C)O)C(=O)O[C@@H]1C(OC)=C[C@]23CCCN2CCc2cc4c(cc2[C@H]13)OCO4.O=C(O)C[C@H](O)C(=O)O [Example 3, HOMOHARRINGTONINE HYDROGEN (2S)-MALATE]
